Source: paper PMC5216352, “Disulfide isomerase-like protein AtPDIL1–2 is a good candidate for trichlorophenol phytodetoxification” (Scientific Reports, 2017)

Molecular target: T1, AtPDIL1-2 (Arabidopsis thaliana, UniProt Q9SRG3)
T1 construct: gene PDIL1-2; full-length cDNA (1527 bp ORF, start codon to C-terminal KDEL) in pET-32a, His-tagged fusion about 72 kDa, E. coli, Ni-NTA purified
T1 sequence (Q9SRG3 1-508): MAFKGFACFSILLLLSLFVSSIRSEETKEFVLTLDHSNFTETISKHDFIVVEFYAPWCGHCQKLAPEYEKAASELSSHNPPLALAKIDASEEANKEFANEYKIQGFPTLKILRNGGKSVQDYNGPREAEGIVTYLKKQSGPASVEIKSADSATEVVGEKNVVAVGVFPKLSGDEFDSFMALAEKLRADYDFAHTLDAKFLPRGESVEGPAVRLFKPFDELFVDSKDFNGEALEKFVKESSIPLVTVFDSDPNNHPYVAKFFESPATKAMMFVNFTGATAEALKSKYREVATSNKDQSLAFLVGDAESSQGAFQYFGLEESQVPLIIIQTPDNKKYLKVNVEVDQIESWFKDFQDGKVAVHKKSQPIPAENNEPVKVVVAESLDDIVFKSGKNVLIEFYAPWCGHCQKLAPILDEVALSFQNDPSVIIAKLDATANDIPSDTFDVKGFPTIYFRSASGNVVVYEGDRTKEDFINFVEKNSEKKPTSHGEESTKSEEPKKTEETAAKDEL
Assay: RNase A oxidative refolding assay, cCMP hydrolysis at […] nm
Format: biochemical
Settings: 3.5 uM protein, 10 uM reduced denatured RNase, 4.5 mM cCMP, 1 mM GSH, 0.2 mM GSSG, pH 8; TCP concentration not given

In the case of `Oc1c(Cl)cc(Cl)cc1Cl` [2,4,6-TCP], the maximum inhibition is reported as 16%.
